4 molecules from publication PMC5803215, “Structural basis for amino acid transport by the CAT family of SLC7 transporters” (Nature Communications, 2018) can be followed below.

The target in assay [1] is T1, GkApcT (Geobacillus kaustophilus, UniProt Q5L1G5, K191R).
T1 construct: gene GK0930; cleavable GFP-His tag (pWaldo-GFP) removed with TEV; expressed in E. coli C43(DE3); co-purifies with E. coli MgtS; purified in DM/DDM, reconstituted in POPE:POPG liposomes
The assay is described as follows: thermal stability (nanoDSF). It is filed as binding. The settings on record: 10 mM L-Ala; pH 6.0. In general terms: In DSF a fluorescence change marks the thermal transition of the protein.

For assay [2], the target named is T2, GkApcT (Geobacillus kaustophilus, UniProt Q5L1G5, E115Q).
T2 construct: gene GK0930; cleavable GFP-His tag (pWaldo-GFP) removed with TEV; expressed in E. coli C43(DE3); co-purifies with E. coli MgtS; purified in DM/DDM, reconstituted in POPE:POPG liposomes
Nature of the assay: thermal stability (nanoDSF). The assay is classed as binding. The settings on record: 10 mM L-Ala; pH 6.0.

The target of assay [3] is T3, GkApcT (Geobacillus kaustophilus, UniProt Q5L1G5, K191N).
T3 construct: gene GK0930; cleavable GFP-His tag (pWaldo-GFP) removed with TEV; expressed in E. coli C43(DE3); co-purifies with E. coli MgtS; purified in DM/DDM, reconstituted in POPE:POPG liposomes
The assay is described as follows: thermal stability (nanoDSF). It is filed as binding. The settings on record: 10 mM L-Ala; pH 6.0.

The target in assay [4] is T4, GkApcT (Geobacillus kaustophilus, UniProt Q5L1G5).
T4 construct: gene GK0930; cleavable GFP-His tag (pWaldo-GFP) removed with TEV; expressed in E. coli C43(DE3); co-purifies with E. coli MgtS; purified in DM/DDM, reconstituted in POPE:POPG liposomes
T4 sequence (Q5L1G5 1-471): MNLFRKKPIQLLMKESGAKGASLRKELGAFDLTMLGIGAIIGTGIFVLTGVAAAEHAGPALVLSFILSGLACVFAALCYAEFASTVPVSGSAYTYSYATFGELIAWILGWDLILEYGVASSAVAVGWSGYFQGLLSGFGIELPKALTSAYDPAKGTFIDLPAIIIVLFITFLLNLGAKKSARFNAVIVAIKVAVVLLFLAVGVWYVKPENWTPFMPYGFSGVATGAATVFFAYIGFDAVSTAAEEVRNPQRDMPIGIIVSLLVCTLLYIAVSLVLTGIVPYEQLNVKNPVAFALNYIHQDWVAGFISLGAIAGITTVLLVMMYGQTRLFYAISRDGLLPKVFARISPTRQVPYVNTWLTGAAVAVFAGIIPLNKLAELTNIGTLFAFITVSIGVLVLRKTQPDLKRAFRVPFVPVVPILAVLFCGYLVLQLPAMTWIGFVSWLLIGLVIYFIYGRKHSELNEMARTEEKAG
Nature of the assay: thermal stability (nanoDSF). The settings on record: 10 mM L-Ala; pH 6.0. The assay is classed as binding.

Assay [5] addresses T5, GkApcT (Geobacillus kaustophilus, UniProt Q5L1G5, K191A).
T5 construct: gene GK0930; cleavable GFP-His tag (pWaldo-GFP) removed with TEV; expressed in E. coli C43(DE3); co-purifies with E. coli MgtS; purified in DM/DDM, reconstituted in POPE:POPG liposomes
The assay is described as follows: thermal stability (nanoDSF). It is filed as binding. The settings on record: 10 mM L-Ala; pH 6.0.

In assay [6] the target is T4, GkApcT. The assay is described as follows: electrogenic 3H-L-Ala uptake competition in proteoliposomes. The assay is classed as biochemical.
The target of assay [7] is T6, GkApcT (Geobacillus kaustophilus, UniProt Q5L1G5, R334E).
T6 construct: gene GK0930; cleavable GFP-His tag (pWaldo-GFP) removed with TEV; expressed in E. coli C43(DE3); co-purifies with E. coli MgtS; purified in DM/DDM, reconstituted in POPE:POPG liposomes
Described as above. It is filed as biochemical.

Assay [8] has as its target T7, GkApcT (Geobacillus kaustophilus, UniProt Q5L1G5, M321S).
T7 construct: gene GK0930; cleavable GFP-His tag (pWaldo-GFP) removed with TEV; expressed in E. coli C43(DE3); co-purifies with E. coli MgtS; purified in DM/DDM, reconstituted in POPE:POPG liposomes
T7 sequence (Q5L1G5 1-471 M321S): T4 sequence (Q5L1G5 1-471) with M321S
The description is as above. The assay is classed as biochemical.

Assay [9] deals with T8, GkApcT-MgtS heterodimer (Geobacillus kaustophilus, UniProt A5A616+Q5L1G5).
T8 construct: gene GK0930; heterodimer of G. kaustophilus GkApcT with host-derived E. coli MgtS (YneM); GFP-His tag cut with TEV; expressed in E. coli C43(DE3)
T8 sequence (Q5L1G5 1-471): T4 sequence (Q5L1G5 1-471)
T8 sequence (A5A616 1-31): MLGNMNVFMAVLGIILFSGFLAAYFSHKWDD
The assay is described as follows: thermal stability (circular dichroism). The assay is classed as binding. The settings on record: pH 6.5. A general note: Circular dichroism is the unequal absorption of left and right circularly polarised light.

The target of assay [10] is T8, GkApcT-MgtS heterodimer. Nature of the assay: X-ray crystal structure. It is filed as binding. The settings on record: site between GkApcT TM5 and MgtS; cholesterol-doped monoolein LCP.

Structures are written as SMILES. Residue numbers refer to the chain shown, from its start. pIC50: −log10 of the molar value.

T1 sequence (Q5L1G5 entry or part of it K191R): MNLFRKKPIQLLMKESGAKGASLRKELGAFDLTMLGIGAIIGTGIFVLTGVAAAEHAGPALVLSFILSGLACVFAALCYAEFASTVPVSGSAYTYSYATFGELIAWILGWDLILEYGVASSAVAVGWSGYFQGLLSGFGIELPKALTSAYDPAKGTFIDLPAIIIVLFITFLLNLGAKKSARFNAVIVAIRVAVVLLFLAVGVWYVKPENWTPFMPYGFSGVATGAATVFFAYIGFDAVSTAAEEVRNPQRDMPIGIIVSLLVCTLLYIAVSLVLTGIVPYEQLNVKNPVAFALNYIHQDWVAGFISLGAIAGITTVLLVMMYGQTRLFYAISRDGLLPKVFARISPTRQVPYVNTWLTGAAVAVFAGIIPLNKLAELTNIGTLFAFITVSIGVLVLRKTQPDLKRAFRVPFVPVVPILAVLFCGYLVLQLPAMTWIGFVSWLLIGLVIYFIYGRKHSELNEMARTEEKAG
T3 sequence (Q5L1G5 entry or part of it K191N): as the sequence (Q5L1G5 entry or part of it K191R) above, with R191N counted along it
T6 sequence (Q5L1G5 entry or part of it R334E): as the sequence (Q5L1G5 entry or part of it K191R) above, with R191K, R334E counted along it
T5 sequence (Q5L1G5 entry or part of it K191A): as the sequence (Q5L1G5 entry or part of it K191R) above, with R191A counted along it
T2 sequence (Q5L1G5 entry or part of it E115Q): as the sequence (Q5L1G5 entry or part of it K191R) above, with E115Q, R191K counted along it

Turning to `C[C@H](N)C(=O)O` [L-Alanine], the dTm entry at GkApcT [1] is “A similar stabilising effect was also observed in the Lys191Ala, Arg and Asn variants”; at GkApcT [2], “Glu115Gln variant can still recognise alanine to the same extent as wild-type protein”; at GkApcT [3], “A similar stabilising effect was also observed in the Lys191Ala, Arg and Asn variants”; on GkApcT [5], “A similar stabilising effect was also observed in the Lys191Ala, Arg and Asn variants”. The Tm with ligand at GkApcT [4] is given as ~58 to ~69. Moreover, the pIC50 on GkApcT [6] was 5.70; at GkApcT [7] it was 6.40.
As for `N=C(N)NCCC[C@H](N)C(=O)O` [L-arginine], the pIC50 on GkApcT [8] was 4.94; on GkApcT [6] it was 2.22.
For `CC(C)CCC[C@@H](C)[C@H]1CC[C@H]2[C@@H]3CC=C4C[C@@H](OC(=O)CCC(=O)O)CC[C@]4(C)[C@H]3CC[C@]12C` [cholesterol hemisuccinate], the Tm with ligand on GkApcT-MgtS heterodimer [9] was 57 to 72 °C.
With `CC(C)CCC[C@@H](C)[C@H]1CC[C@H]2[C@@H]3CC=C4C[C@@H](O)CC[C@]4(C)[C@H]3CC[C@]12C` [cholesterol], the X-ray crystal structure entry at GkApcT-MgtS heterodimer [10] is on record as “we observed density for a cholesterol molecule in this pocket”.

One may read the pIC50 as −log10 of the IC50, conventionally taken in molar units.
